From patent publication US4761410A, “Cephem Compounds” (Fujisawa Pharmaceutical Co., Ltd., priority 1985, dated 1988) come the findings set out here.

In assay [1] the test system is Proteus vulgaris IAM 1025. Briefly: In vitro antibacterial activity (MIC) by two-fold agar-plate dilution method, Proteus vulgaris IAM 1025. Type of assay: cell-based. Particulars: IAM1025, heart infusion agar, 37° C., 20 hours, read-out: MIC (minimal inhibitory concentration). The procedure:
(§1) In vitro antibacterial activity was determined by the two-fold agar-plate dilution method as described below.
(§2) One loopful of an overnight culture of each test strain in Trypticase-soy broth (10^8 viable cells per ml) was streaked on heart infusion agar HI-agar) containing graded concentrations of representative test compound, and the minimal inhibitory concentration (MIC) was expressed in terms of μg/ml after incubation at 37° C. for 20 hours.

The subject of the next assay is Escherichia coli 29. Briefly: In vitro antibacterial activity (MIC) by two-fold agar-plate dilution method, Escherichia coli 29. Particulars: heart infusion agar, 37° C., 20 hours, read-out: MIC (minimal inhibitory concentration). It counts as cell-based. The procedure: as §1, §2

Converted amounts (≈) assume the structure as drawn. A value given as a limit tells only on which side of the number the result lay.

Turning to `Cc1ccc[n+](CC2=C(C(=O)[O-])N3C(=O)C(NC(=O)/C(=N\OC(F)F)c4csc(N)n4)C3SC2)c1` (stereo not drawn) [Test Compound (1), 7-[2-(2-Aminothiazol-4-yl)-2-difluoromethoxyiminoacetamido]-3-(3-methyl-1-pyridiniomethyl)-3-cephem-4-carboxylate], the MIC (in assay [1]; in the assay with Escherichia coli 29) was at most 0.025 µg/mL each time.
On to `Cc1nsc(SCC2=C(C(=O)O)N3C(=O)C(NC(=O)/C(=N\OC(F)F)c4csc(N)n4)C3SC2)n1` (stereo not drawn) [Test Compound (2), 7-[2-(2-Aminothiazol-4-yl)-2-difluoromethoxyiminoacetamido]-3-(3-methyl-1,2,4-thiadiazol-5-yl)thiomethyl-3-cephem-4-carboxylic acid], for which the results for the MIC (in assay [1]; with Escherichia coli 29) were 0.05 µg/mL (≈ 0.0887 µM) and 0.2 µg/mL (≈ 0.355 µM), respectively.
`Nc1nc(/C(=N/OC(F)F)C(=O)NC2C(=O)N3C(C(=O)O)=C(CSc4ncns4)CSC23)cs1` (stereo not drawn) [Test Compound (3), 7-[2-(2-Aminothiazol-4-yl)-2-difluoromethoxyiminoacetamido]-3-(1,2,4-thiadiazol-5-yl)thiomethyl-3-cephem-4-carboxylic acid]: the figures for the MIC (in assay [1]; in the assay with Escherichia coli 29) were at most 0.025 µg/mL and 0.1 µg/mL (≈ 0.182 µM), respectively.
